Values joined by “and” are separate entries in the source; they are usually repeats but may differ in a detail not shown here. Equal values may be shown once. Where a SMILES comes first, the peptide text is derived from it. [ ]: non-standard residue; d: D form. Cha = N[C@@H](CC1CCCCC1)C(=O)O; Aib = CC(C)(N)C(=O)O
Assays:
[1] = Solubility measurement (peptide concentration in saturated solution); conditions: sodium-phosphate buffer, pH 7.4, aqueous buffer, thermodynamic from solid
Method: Approximately 2 mg of each peptide was added to 500 µl of buffer in 1.5-ml Eppendorf tubes. The tubes were shaken at 25 °C for 2 h on a 900 r.p.m. vortex shaker. The samples were centrifuged at 12,000 r.p.m. for 15 min to remove the precipitate and the supernatant was analyzed by ultraviolet–visible light (UV–vis) spectrometry.

[2] = target: SARS-CoV-2 RBD binding to immobilized ACE2 (Severe acute respiratory syndrome coronavirus 2, UniProt P0DTC2); experiment: biochemical
[3] = target: SARS-CoV-2 RBD (Severe acute respiratory syndrome coronavirus 2, UniProt P0DTC2); experiment: biochemical; type: binding; conditions: KD (direct binding to RBD)
[4] = Cell viability (MTT) assay, Vero-E6; type: cell-based, monkey; conditions: monkey; Vero-E6 cells, MTT, 20 μM (highest concentration tested), 48 h
Method: (§1) The cell viability assay was performed by using the MTT (3-(4,5-dimethylthiazol-2-yl)-2,5-diphenyltetrazolium bromide) assay. […] The next day, 50 μl of media was removed from each well and 50 μl of the peptide was added in a dose-dependent manner. 10% DMSO (final concentration v/v) was used as a positive control for the induction of cytotoxicity. […] The plate was incubated for another 4 h in the humidified CO2 incubator, after which 100 μl of dissolving solution (10% SDS in 0.01 M HCl) was added to each well. The plate was then incubated in a CO2 incubator overnight. The next day, the plate was read for absorbance at 570 nm. The percentage viability of cells was recorded in comparison to the untreated cells.

[5] = tested on: Vero-E6 cells; experiment: Cell viability (MTT) assay, Vero-E6; type: cell-based, monkey; conditions: Vero-E6 cytotoxicity vs pseudovirus IC50
Method: as §1

Compound | solubility thermodynamic at 2 h [1] | IC50 [2] | Kd ([3]; re-analyzed) | viability at 48 h, 20 µM [4] | Kd [3] | Selectivity index (50% cytotoxic concentration divided by IC50) [5]
CC[C@H](C)[C@H](NC(=O)[C@H](CC(C)C)NC(=O)[C@H](CC(=O)O)NC(=O)[C@H](CO)NC(=O)[C@@H](NC(=O)[C@H](CCCNC(=N)N)NC(=O)[C@H](CCSC)NC(=O)[C@H](CO)NC(=O)[C@H](C)NC(=O)[C@H](CCC(=O)O)NC(=O)C(C)(C)NC(=O)[C@H](CC(=O)O)NC(=O)[C@@H](C)NC(=O)[C@H](CC(C)C)NC(=O)[C@H](CCC(=O)O)NC(=O)[C@H](CC(=O)O)NC(=O)[C@H](CC(C)C)NC(=O)[C@H](CC(C)C)NC(=O)[C@H](CCCNC(=N)N)NC(=O)[C@H](CCSC)NC(=O)[C@@H](NC(=O)[C@H](CCC(=O)O)NC(=O)[C@H](Cc1ccc(O)cc1)NC(=O)[C@@H](NC(=O)[C@H](CCCCN)NC(=O)[C@H](CCC(N)=O)NC(=O)[C@H](CC(C)C)NC(=O)[C@@H](NC(=O)[C@H](Cc1c[nH]c2ccccc12)NC(=O)[C@H](CCC(=O)O)NC(=O)[C@H](CCCCN)NC(=O)[C@@H](N)CC(=O)O)[C@@H](C)CC)[C@@H](C)CC)[C@@H](C)CC)C(C)C)C(=O)N[C@@H](Cc1ccc(O)cc1)C(=O)N[C@@H](CCC(=O)O)C(=O)N[C@@H](Cc1ccccc1)C(=O)N[C@@H](CCSC)C(=O)N[C@@H](CCCCN)C(=O)N[C@@H](CCCCN)C(N)=O [SIH-5] (H-DKEWILQKIYEIMRLLDEL[dA]D[Aib]EASMRVSDLIYEFMKK-NH2) | > 700 µM | 125 to 250 nM | ~0.9 nM and 0.9 nM | > 75% |  | 
CC[C@H](C)[C@H](NC(=O)[C@H](CC(C)C)NC(=O)[C@H](CC(=O)O)NC(=O)[C@H](CO)NC(=O)[C@@H](NC(=O)[C@H](CCCNC(=N)N)NC(=O)[C@H](CCSC)NC(=O)[C@H](CO)NC(=O)[C@H](C)NC(=O)[C@H](CCC(=O)O)NC(=O)C(C)(C)NC(=O)[C@H](CC(=O)O)NC(=O)[C@@H](C)NC(=O)[C@H](CC(C)C)NC(=O)[C@H](CCC(=O)O)NC(=O)[C@H](CC(=O)O)NC(=O)[C@H](CC(C)C)NC(=O)[C@H](CC(C)C)NC(=O)[C@H](CCCNC(=N)N)NC(=O)[C@H](CCSC)NC(=O)[C@@H](NC(=O)[C@H](CCC(=O)O)NC(=O)[C@H](Cc1ccc(O)cc1)NC(=O)[C@@H](NC(=O)[C@H](CCCCN)NC(=O)[C@H](CCC(N)=O)NC(=O)[C@H](CC(C)C)NC(=O)[C@@H](NC(=O)[C@H](Cc1c[nH]c2ccccc12)NC(=O)[C@H](CCC(=O)O)NC(=O)[C@H](CCCCN)NC(=O)[C@@H](N)CC(=O)O)[C@@H](C)CC)[C@@H](C)CC)[C@@H](C)CC)C(C)C)C(=O)N[C@@H](Cc1ccc(O)cc1)C(=O)N[C@@H](CCC(=O)O)C(=O)N[C@@H](CC1CCCCC1)C(=O)N[C@@H](CCSC)C(=O)N[C@@H](CCCCN)C(=O)N[C@@H](CCCCN)C(N)=O [SIH-11] (H-DKEWILQKIYEIMRLLDEL[dA]D[Aib]EASMRVSDLIYE[Cha]MKK-NH2) |  | 125 to 250 nM |  | > 75% | 1.3 nM | > 50,000
